According to publication PMC11383830, “TTK inhibitor OSU13 promotes immunotherapy responses by activating tumor STING” (JCI Insight, 2024):
pEC50: −log10 of the molar value.

Target: T1, LRRK2 (Homo sapiens, UniProt Q5S007)
T1 construct: LRRK2-NanoLuc fusion
Experiment: NanoBRET in-cell target engagement, competitive displacement of K-9 tracer in transfected HEK293 cells
Assay type: cell-based

T1 sequence (Q5S007 whole entry, the tested form may be a part): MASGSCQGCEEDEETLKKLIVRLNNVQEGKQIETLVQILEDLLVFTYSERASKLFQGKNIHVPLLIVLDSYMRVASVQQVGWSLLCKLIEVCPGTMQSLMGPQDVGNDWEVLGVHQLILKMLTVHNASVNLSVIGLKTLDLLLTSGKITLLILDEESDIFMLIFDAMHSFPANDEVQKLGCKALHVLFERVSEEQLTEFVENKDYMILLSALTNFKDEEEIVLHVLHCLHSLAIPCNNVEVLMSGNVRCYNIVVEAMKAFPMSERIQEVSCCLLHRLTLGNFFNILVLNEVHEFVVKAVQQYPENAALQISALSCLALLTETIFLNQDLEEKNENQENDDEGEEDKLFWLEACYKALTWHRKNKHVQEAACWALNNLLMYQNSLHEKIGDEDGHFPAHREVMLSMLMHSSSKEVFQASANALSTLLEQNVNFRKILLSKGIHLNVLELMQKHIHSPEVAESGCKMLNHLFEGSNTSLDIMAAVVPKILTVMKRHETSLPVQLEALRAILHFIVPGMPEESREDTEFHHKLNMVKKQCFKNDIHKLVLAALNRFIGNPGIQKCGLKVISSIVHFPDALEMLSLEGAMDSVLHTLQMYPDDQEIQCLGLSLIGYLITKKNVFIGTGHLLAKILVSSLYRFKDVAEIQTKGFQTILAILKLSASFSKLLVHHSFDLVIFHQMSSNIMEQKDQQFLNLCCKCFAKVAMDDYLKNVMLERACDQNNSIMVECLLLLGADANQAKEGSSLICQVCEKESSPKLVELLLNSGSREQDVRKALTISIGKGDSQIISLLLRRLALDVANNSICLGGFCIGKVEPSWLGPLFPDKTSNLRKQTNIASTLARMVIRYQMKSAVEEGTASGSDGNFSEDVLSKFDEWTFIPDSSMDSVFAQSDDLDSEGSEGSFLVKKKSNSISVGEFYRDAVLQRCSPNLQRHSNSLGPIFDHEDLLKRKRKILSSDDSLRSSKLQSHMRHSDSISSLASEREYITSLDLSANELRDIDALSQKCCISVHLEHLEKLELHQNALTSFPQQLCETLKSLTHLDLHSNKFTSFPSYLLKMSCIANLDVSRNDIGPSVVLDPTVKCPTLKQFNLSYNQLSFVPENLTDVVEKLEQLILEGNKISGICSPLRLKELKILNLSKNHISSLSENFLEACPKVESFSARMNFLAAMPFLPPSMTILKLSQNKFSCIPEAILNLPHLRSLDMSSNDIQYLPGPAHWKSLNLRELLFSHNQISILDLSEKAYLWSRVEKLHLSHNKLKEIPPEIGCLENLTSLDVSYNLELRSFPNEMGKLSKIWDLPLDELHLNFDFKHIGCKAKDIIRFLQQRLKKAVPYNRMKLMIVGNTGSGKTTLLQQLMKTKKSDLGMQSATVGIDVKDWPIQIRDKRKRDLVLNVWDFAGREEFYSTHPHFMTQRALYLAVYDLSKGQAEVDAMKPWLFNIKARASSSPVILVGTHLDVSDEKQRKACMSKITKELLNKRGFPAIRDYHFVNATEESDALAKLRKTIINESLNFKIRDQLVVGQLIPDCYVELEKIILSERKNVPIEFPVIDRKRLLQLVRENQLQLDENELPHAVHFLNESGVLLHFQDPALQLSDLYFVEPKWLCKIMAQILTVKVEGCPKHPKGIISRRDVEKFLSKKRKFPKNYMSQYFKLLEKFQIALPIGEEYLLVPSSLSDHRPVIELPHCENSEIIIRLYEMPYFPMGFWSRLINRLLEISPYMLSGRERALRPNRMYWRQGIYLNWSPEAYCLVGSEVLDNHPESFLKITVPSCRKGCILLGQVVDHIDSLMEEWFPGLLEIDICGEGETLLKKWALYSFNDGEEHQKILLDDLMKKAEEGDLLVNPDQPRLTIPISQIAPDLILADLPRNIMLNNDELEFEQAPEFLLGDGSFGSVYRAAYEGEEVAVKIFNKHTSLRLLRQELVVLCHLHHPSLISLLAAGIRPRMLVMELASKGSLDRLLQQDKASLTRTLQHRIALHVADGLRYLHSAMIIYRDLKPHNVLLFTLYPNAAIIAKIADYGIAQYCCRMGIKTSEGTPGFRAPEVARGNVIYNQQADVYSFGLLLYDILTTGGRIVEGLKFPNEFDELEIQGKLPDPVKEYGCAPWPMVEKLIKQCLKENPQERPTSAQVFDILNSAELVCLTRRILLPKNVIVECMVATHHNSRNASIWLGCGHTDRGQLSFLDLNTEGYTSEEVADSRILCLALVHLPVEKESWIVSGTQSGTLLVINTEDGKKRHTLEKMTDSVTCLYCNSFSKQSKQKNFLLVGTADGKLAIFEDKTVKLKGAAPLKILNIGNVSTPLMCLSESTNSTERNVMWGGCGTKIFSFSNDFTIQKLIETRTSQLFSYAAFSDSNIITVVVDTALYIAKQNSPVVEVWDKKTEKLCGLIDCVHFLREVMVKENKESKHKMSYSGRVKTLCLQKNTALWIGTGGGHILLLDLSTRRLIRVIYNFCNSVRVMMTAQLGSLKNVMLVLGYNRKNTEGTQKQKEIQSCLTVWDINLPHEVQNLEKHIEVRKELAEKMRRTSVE

Question: With OSU13 as the substance, how does the pEC50 read?
Answer: Its pEC50 is 6.67.
